This is an account of results in patent US20240108602A1, “TREATMENT OF MENTAL DISORDERS” (GH Research Ireland Limited, priority 2022, published 2024).

Data set [1] relates to Salmonella typhimurium (TA98, TA100, TA1535 and TA1537). Kind of data set: Bacterial mutation test, Salmonella typhimurium. The class given is cell-based. An excerpt: (§1) These conditions included treatments at concentrations up to […] (the maximum recommended concentration according to current regulatory guidelines), in the absence and in the presence of a rat liver metabolic activation system (S-9).

The subject of data set [2] is Escherichia coli (WP2 uvrA pKM101). Briefly: Bacterial mutation test, Escherichia coli. As to conditions: up to 5000 pg/plate, with and without S-9. Type of data set: cell-based.
Text: as §1

Take `COc1ccc2[nH]cc(CCN(C)C)c2c1` [5-MeO-DMT]: the “in vitro genotoxicity assessment” value in data set [1] is reported as “negative”. Also, the induction of mutation entry in data set [1] (up to 5000 μg/plate, with and without S-9) was “did not induce mutation”; in data set [2], “did not induce mutation”.
